From patent publication US7691969B2, “Isolated GRP94 ligand binding domain polypeptide and nucleic acid encoding same, crystalline form of same, and screening methods employing same” (Duke University, priority 2001, dated 2010)

Legend:
GRP94 [1] = target: T1, GRP94 (Sus scrofa, UniProt Q29092); experiment: ATPase assay (HPLC of ATP/ADP); type: biochemical, porcine
T1 construct: GRP94 was purified from porcine pancreas rough microsomes; from tissue; host or cells: porcine pancreas rough microsomes (lumenal contents)
Procedure: ATPase Assay. 100 μl reactions consisting of 1 μM GRP94 monomer, various concentrations of MgATP (pH 7.0), and 50 mM K-Hepes, pH 7.4, were incubated for two hours at 37° C. Samples were then spun through a CENTRICON®-30 (Amicon of Beverly, Mass.) at 10,000 rpm, 4° C. to separate protein from nucleotide. A final concentration of 50 mM (NH4)2HPO4, pH 7.0, and 4 μM AMP, pH 7.0, was added to dilutions of the above samples and centrifuged at 15,200 rpm for 5 minutes at 4° C. 100 μL of supernatant was then fractionated on a […]™ SAX column (Alltech of Deerfield, Ill.), using a Series 1050 Hewlett Packard HPLC system. Elution of nucleotides was performed by step gradient elution using a mobile phase of 150 mM (NH4)2HPO4, pH 5.2, at 1.2 ml/min for the first ten minutes, followed by 300 mM (NH4)2HPO4, pH 5.2, at a flow rate of 2 ml/min for the remainder of the elution. In this protocol, ADP and ATP were well resolved, with ADP eluting at 7 minutes and ATP at 12 minutes. Peak height values were used in calculations of percent hydrolysis and ADP formation. Spontaneous hydrolysis was determined for each ATP concentration in paired incubations lacking GRP94. The AMP was used as an internal reference standard to control for equivalent sample loading.

BiP = experiment: [3H]-NECA binding assay (vacuum filtration); parameters: species or system porcine; conditions: 20 nM [3H]-NECA, 60 min on ice
GRP94 [2] = target: T1, GRP94; experiment: GRP94 autophosphorylation assay; type: biochemical, porcine; conditions: 180 μM NECA or radicicol in 3.6% DMSO, 5 μg/ml heparin, 5 mM GTP
Procedure: (§1) Phosphorylation Assays. To assay for GRP94 autophosphorylation, 1 μM GRP94 was incubated with γ-[^32P]ATP (6000 cpm/pmol) (Amersham Pharmacia Biotech of Piscataway, N.J.), diluted with cold ATP to yield a final concentration of 0.15 mM ATP in a buffer containing 10 mM Mg(OAc)2 and 50 mM K-Hepes, pH 7.4. For the casein kinase assay, 1 unit of casein kinase II was incubated as described above, with the addition of 4 μM casein. […] The 25 μl reaction mixtures were incubated at 37° C. for 1 hour and quenched by addition of 10% trichloroacetic acid. Samples were analyzed by 10% SDS-PAGE gels and the phosphorylated species were quantitated using a Fuji MACBAS1000™ phosphorimaging system (Fuji Medical Systems of Stamford, Conn.).

casein kinase II = casein kinase II (Homo sapiens, UniProt P68400); experiment: Casein kinase assay; type: biochemical; conditions: 180 μM NECA or radicicol in 3.6% DMSO, 5 μg/ml heparin, 5 mM GTP; 4 μM casein
Procedure: as §1

GRP94 [3] = target: T1, GRP94; experiment: [3H]-NECA binding assay (vacuum filtration); parameters: species or system porcine
Procedure: (§2) Where indicated, binding reactions were performed in either buffer C (10 mM Tris, pH 7.5, 50 mM KCl, 5 mM MgCl2, 2 mM DTT, 0.01% NP-40, 20 mM Na2MoO4) or 50 mM Tris, pH 7.5, 10 mM Mg(OAc)2. […] Vacuum filtration was performed with an Amersham Pharmacia Biotech (Piscataway, N.J.) vacuum filtration manifold.
Filters were rapidly washed with 3×4 ml of ice cold 50 mM Tris, pH 7.5, placed in 5 ml of scintillation fluid (SAFETYSOLVE™, RPI of Mt. Prospect, Ill.), vortexed, and counted by liquid scintillation spectrometry. […] All binding reactions were performed in triplicate and corrected by subtraction of background values, determined in binding reactions lacking GRP94.

GRP94 [4] = target: T1, GRP94; experiment: [3H]-NECA competitive displacement assay; type: binding, porcine; conditions: 10 mM Mg(OAc)2 versus nominal magnesium
Procedure: as §2
All binding reactions were performed in triplicate and corrected by subtraction of background values, determined in binding reactions lacking GRP94.

GRP94 [5] = target: T1, GRP94; experiment: Tryptophan fluorescence (tertiary conformational state); type: biochemical, porcine; conditions: 50 μM NECA, 50 μM geldanamycin, 2.5 mM ATP or 2.5 mM ADP; 1 h 37° C.
Procedure: Tryptophan Fluorescence. Tryptophan fluorescence measurements were conducted in a FLUOROMAX™ spectrofluorometer (Spex Industries, Inc. of Edison, N.J.) with the slit widths set to 1 nm for both excitation and emission. […] All spectra were corrected by subtraction of buffer or buffer plus ligand samples. GRP94 (50 μg/ml) was incubated in buffer A supplemented with 10 mM Mg(OAc)2 and the following concentrations of ligands for 1 hour at 37° C. […] Samples were then cooled to room temperature, transferred to a quartz cuvette, and the spectra collected.

GRP94 [6] = target: T1, GRP94; experiment: Isothermal titration calorimetry; type: binding, porcine
Procedure: Isothermal Titration Calorimetry. Isothermal calorimetry experiments were performed at 25° C. using a MSC calorimeter (MicroCal Inc. of Northampton, Mass.). […] The reaction chamber (1.3 mL) contained 5 μM GRP94. Necessary corrections were made by subtracting the heats of dilution resulting from buffer addition to protein solution and ligand solution into buffer.

T1 sequence (Q29092 22-804): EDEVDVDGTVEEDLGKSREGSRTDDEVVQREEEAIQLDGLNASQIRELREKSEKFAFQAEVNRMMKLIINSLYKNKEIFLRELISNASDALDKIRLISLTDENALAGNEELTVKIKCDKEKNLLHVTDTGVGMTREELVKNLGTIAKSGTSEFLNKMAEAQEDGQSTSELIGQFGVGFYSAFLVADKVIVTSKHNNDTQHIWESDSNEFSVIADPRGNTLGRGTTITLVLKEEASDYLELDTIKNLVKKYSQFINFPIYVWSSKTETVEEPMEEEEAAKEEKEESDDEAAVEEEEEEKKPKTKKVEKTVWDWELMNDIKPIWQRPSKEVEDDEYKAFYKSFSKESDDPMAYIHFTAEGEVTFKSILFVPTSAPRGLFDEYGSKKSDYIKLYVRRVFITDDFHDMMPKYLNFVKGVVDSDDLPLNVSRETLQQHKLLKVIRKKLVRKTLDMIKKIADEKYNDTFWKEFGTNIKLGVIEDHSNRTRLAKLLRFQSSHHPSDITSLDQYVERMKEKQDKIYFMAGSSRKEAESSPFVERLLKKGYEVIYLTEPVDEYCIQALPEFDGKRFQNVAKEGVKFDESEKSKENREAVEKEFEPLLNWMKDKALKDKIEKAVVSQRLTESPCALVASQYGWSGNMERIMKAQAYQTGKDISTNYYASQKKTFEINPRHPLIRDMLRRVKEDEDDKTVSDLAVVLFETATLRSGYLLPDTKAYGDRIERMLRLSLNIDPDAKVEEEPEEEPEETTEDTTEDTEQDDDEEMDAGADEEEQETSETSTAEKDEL
casein kinase II, sequence (P68400 whole entry): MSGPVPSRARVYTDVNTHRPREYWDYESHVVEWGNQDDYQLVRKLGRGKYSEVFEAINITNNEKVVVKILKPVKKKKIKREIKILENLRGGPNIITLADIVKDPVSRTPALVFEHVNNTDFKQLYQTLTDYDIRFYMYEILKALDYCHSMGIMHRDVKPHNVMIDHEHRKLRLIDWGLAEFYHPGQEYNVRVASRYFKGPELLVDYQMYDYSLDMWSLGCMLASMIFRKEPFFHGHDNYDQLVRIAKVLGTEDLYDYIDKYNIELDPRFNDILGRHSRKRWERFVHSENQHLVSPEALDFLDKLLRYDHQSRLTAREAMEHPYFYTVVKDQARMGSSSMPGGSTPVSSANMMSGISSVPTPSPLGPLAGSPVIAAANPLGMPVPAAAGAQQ
casein kinase II, sequence (P67870 whole entry partner): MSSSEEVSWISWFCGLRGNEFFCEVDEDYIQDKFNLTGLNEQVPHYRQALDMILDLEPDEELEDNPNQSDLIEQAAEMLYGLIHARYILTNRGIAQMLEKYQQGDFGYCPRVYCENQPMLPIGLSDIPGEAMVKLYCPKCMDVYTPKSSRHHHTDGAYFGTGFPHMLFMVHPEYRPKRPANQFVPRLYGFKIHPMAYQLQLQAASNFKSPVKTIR

CCNC(=O)[C@H]1O[C@@H](n2cnc3c(N)ncnc32)[C@H](O)[C@@H]1O [NECA, N-ethylcarboxamidoadenosine]
inhibition of GRP94 ATPase activity (GRP94 [1]): sensitive to inhibition by NECA
[3H]-NECA binding activity (BiP): [^3H]-NECA binding was not observed for Hsp90 or BiP
inhibition of GRP94 autophosphorylation (GRP94-derived kinase) activity (GRP94 [2]): neither NECA nor radicicol, both of which bind to the N-terminal nucleotide binding domain of GRP94, significantly inhibit GRP94 derived or casein kinase II activity below the solvent background
inhibition of casein kinase II activity (casein kinase II): neither NECA nor radicicol, both of which bind to the N-terminal nucleotide binding domain of GRP94, significantly inhibit GRP94 derived or casein kinase II activity below the solvent background
slope of Hill plot (GRP94 [3]): 1.2
[3H]-NECA binding activity (GRP94 [3]; 20 nM [3H]-NECA, 60 min on ice): displayed readily detectable [^3H]-NECA binding activity
maximal binding stoichiometry (saturation curve) (GRP94 [3]; FIG. 9B): 1 molecule of NECA per molecule of GRP94 dimer
binding stoichiometry (GRP94 [3]; radioligand filtration): 0.5 mol [^3H]-NECA/mol GRP94 monomer
effect of excess Mg2+ on binding to GRP94 (GRP94 [4]): without effect on the binding of NECA or adenosine to GRP94
change of GRP94 tryptophan fluorescence (GRP94 [5]): increased the tryptophan fluorescence
binding stoichiometry at saturation (summary of ligand binding studies and calorimetry) (GRP94 [6]): 1 mol NECA:mol GRP94 dimer
binding stoichiometry by isothermal titration calorimetry (GRP94 [6]; 5 μM GRP94, 152 μM NECA stock, 25° C.): 1.1 mol NECA/mol GRP94 dimer
